# Measurements reported in publication PMC12326358, “Effect of Quantitative Structural Properties and Drug Formulation in Four Cannabinoids (Cannabidiol, Cannabigerol, Cannabichromene, and Cannabinol) on Their Lymphatic Transport after Enteral Administration in Rats” (Molecular Pharmaceutics, 2025).
# Read-outs that look alike come from different tables or passages of the source.
# Columns and labels:
# [1] = Pharmacokinetic studies (oral and intravenous dosing) in jugular vein cannulated rats; settings: for AUC(0-inf): AUC0-inf; for bioavailability: F0-inf (absolute oral bioavailability)
# Method: Absolute oral bioavailability and other pharmacokinetic parameters were determined in a series of two-period, crossover studies, where the cannabinoids were administered intravenously in the first period, and orally in the second. Both jugular veins were cannulated (3 Fr polyurethane catheter, Instech Laboratories, Plymouth Meeting, USA). One catheter was used for intravenous dosing, and the second one was used for repetitive blood sampling in order to avoid sampling cannula contamination with highly concentrated intravenous drug solution. The anesthesia was performed using a rapid inhalational induction with isoflurane (IsoFlo, Zoetis, Czech Republic) followed by intramuscular injection of ketamine 100 mg/kg (Narkamon, Bioveta a.s., Czech Republic) and xylazine 5 mg/kg (Rometar, Bioveta a.s., Czech Republic). After a three-day recovery period, the rats were intravenously dosed with the particular cannabinoid (1 mg of CBD, 1.5 mg of the other three cannabinoids in the form of nanoemulsion, volume 100 μL). Systemic blood (100 μL) was drawn at 5, 15, and 30 min and at 1, 2, 4, 6, 8, 10, and 24 h(s) postdose. After a two-day wash-out period, the dosing via oral gavage followed (10 mg of CBD, 15 mg of the other three cannabinoids in the form of nanoemulsion, volume 1 mL). Systemic blood (100 μL) was drawn at 0 (predose), 0.5, 1, 2, 3, 4, 5, 6, 8, 10, and 24 h(s). Blood samples were centrifuged (4500 rpm for 10 min) and serum was extracted and stored in −80 °C until analysis. The laboratory was unaware of animal assignment to particular experimental groups (laboratory blinding).
# Serum and lymph concentrations in all studies were dose-normalized to 1 mg/kg prior to further calculations. AUC values were determined using linear trapezoidal rule. Exact actual sampling times were used for this purpose. Scheduled sampling times were used for mean concentration plotting in the graphs. PK-solver add-on for MS Excel was used for all basic pharmacokinetic calculations. GraphPad Prism version 10.2.2 (GraphPad Software, San Diego, CA, USA) was used for all statistical analyses and graph plotting. Unpaired Student’s t test was used to compare pharmacokinetic and lymphatic transport parameters between the experimental groups. Level of significance was set to p < 0.05.
# Lymphatic transport parameters were defined and calculated as previously described. , Briefly, absolute bioavailability via lymph (FAL) was defined as percentage of administered drug dose absorbed into the lymph. It was determined directly from lymph volume and drug concentration in lymph duct cannulated rats. Absolute bioavailability via portal vein (FAP) was analogically defined as percentage of administered drug dose reaching the systemic circulation after direct absorption into blood. It was calculated using equation 1 FAP=AUCent/AUCiv where AUCent is the area under the dose-normalized blood concentration–time curve after enteral dosing in lymph duct cannulated (i.e., lymph deprived) rats and AUCiv is the respective parameter in a separate intravenously dosed group. Total absolute bioavailability (F) in lymph duct cannulated rats was calculated as a sum of FAL and FAP. In normal animals with no lymph duct cannulation, F was calculated using standard formula for oral bioavailability: 2 F=AUCpo/AUCiv Relative bioavailability via lymph (FRL) was defined as the percentage of systemically available drug that was absorbed via lymph. It was calculated using the equation 3 FRL=FAL/F
# [2] = Log P measurement, octanol–water system; format: physicochemical
# Method: There are only calculated log P values available for CBD, CBG, CBC and CBN (range 6.1–7.4). Therefore, log P was measured experimentally for all four cannabinoids during this study. The partition coefficient describes the distribution of a tested compound in a two-phase octanol–water system. It is defined as a ratio of concentrations of the un-ionized compound in octanol and water at equilibrium. Cannabinoids were weighed (2 mg) and dissolved in 2.5 mL of octanol, followed by the addition of 2.5 mL of deionized water. The mixture was shaken for 2 h and then allowed to separate for 24 h. Twenty μL of the aqueous (bottom) phase was transferred into an LC vial, diluted with 60 μL of an appropriate IS at a concentration of 30 ng/mL, and analyzed using the aforementioned UHPLC-MS/MS method. The experiment was repeated five times for each cannabinoid.
# Due to the highly lipophilic character of cannabinoids, their concentration in the organic phase is several orders of magnitude higher than the concentration in the aqueous phase. As a result, the difference in the total amount of cannabinoids and the amount present in the organic phase is very small and falls within the experimental error of the analytical method. Therefore, log P values were calculated based on the measured cannabinoid concentration in the aqueous phase, while the concentration in the octanol phase was calculated from the initial amount of the cannabinoid used and its measured concentration in the aqueous phase. […] Due to the very low concentrations of CBD and CBC in the aqueous phase, which fell below the LOQ of both methods, we were unable to determine the log P for these two cannabinoids.
# [3] = rat, in vivo, iv, 1.5 mg, nanoemulsion, rats, serum, dose-normalized to 1 mg/kg, mean ± SD
# [4] = rat, in vivo, iv, 1.5 mg, T1/2, nanoemulsion, rats, mean ± SD
# [5] = rat, in vivo, po, nanoemulsion, rats, serum, dose-normalized to 1 mg/kg, mean ± SD
# [6] = rat, in vivo, po, oil solution, rats, serum, dose-normalized to 1 mg/kg, mean ± SD
# [7] = rat, in vivo, po, nanoemulsion, rats, 10 mg CBD, 15 mg others, serum, dose-normalized to 1 mg/kg, mean ± SD
# [8] = rat, in vivo, po, oil solution, rats, 10 mg CBD, 15 mg other cannabinoids, serum, dose-normalized to 1 mg/kg, mean ± SD
# [9] = rat, in vivo, po, nanoemulsion, rats, mean ± SD
# [10] = rat, in vivo, po, oil solution, rats, mean ± SD
# [11] = rat, in vivo, po, T1/2, nanoemulsion, rats, mean ± SD
# [12] = rat, in vivo, po, T1/2, oil solution, rats, mean ± SD
# [13] = octanol–water, from measured aqueous phase concentration, lower bounds based on LOQ, n = 5, read-out: Log P
Structure (SMILES),"Vd ([1]; rat, in vivo, iv, 1.5 mg)","clearance ([1]; rat, in vivo, iv, 1.5 mg)","AUC(0-inf) [1, 3]","Cmax [1, 3]","half-life [1, 4]","AUC(0-inf) [1, 5]","AUC(0-inf) [1, 6]","Cmax [1, 7]","Cmax [1, 8]","bioavailability [1, 9]","bioavailability [1, 10]","half-life [1, 11]","half-life [1, 12]","Tmax [1, 9]","Tmax [1, 10]","logP [2, 13]",other results
"CCCCCc1cc(O)c2c(c1)OC(C)(CCC=C(C)C)C=C2 (stereo not shown) [CBC, cannabichromene]",11 ± 2.2 L/kg,100 mL/min/kg,640 ± 85 ng·h/mL,935 ± 147 ng/mL,2.2 ± 0.4 h,117 ± 33 ng·h/mL,31 ± 23 ng·h/mL,12 ± 2 ng/mL,2.6 ± 1.5 ng/mL,18 ± 5%,34 ± 18%,5.8 ± 1.9 h,13 ± 19 h,3.6 ± 1.9 h,6 ± 1.3 h,> 6.7,–
"C=C(C)[C@@H]1CCC(C)=C[C@H]1c1c(O)cc(CCCCC)cc1O [CBD, cannabidiol]",–,–,–,–,–,256 ± 38 ng·h/mL,205 ± 57 ng·h/mL,–,27 ± 10 ng/mL,45 ± 18%,52 ± 19%,4.4 ± 0.8 h,4.8 ± 0.8 h,3.2 ± 0.9 h,6.8 ± 1.9 h,> 6.3,–
"CCCCCc1cc(O)c(C/C=C(\C)CCC=C(C)C)c(O)c1 [CBG, cannabigerol]",7.3 ± 2.3 L/kg,98.3 mL/min/kg,–,–,–,–,–,–,–,–,–,–,–,–,–,–,"AUC(0-inf) ([1]; rat, in vivo, iv, 1.5 mg): 716 ± 136 ng·h/mL; Cmax ([1]; rat, in vivo, iv, 1.5 mg): 1190 ± 286 ng/mL; half-life ([1]; rat, in vivo, iv, 1.5 mg, T1/2): 2.5 ± 1.6 h; T1/2 ([1]; rat, in vivo, po): 5.1 ± 4.1 h; half-life ([1]; rat, in vivo, po, T1/2): 3.1 ± 1.3 h; logP [2]: 7.2"
"CCCCCc1cc(O)c2c(c1)OC(C)(C)c1ccc(C)cc1-2 [CBN, cannabinol]",6.5 ± 1.6 L/kg,50 mL/min/kg,1040 ± 212 ng·h/mL,1230 ± 252 ng/mL,5 h,91 ± 19 ng·h/mL,148 ± 57 ng·h/mL,12 ± 3 ng/mL,15.3 ± 4.6 ng/mL,9%,20 ± 7%,3.5 ± 1.1 h,4.2 ± 1.7 h,2.2 ± 0.6 h,6.5 ± 1.2 h,6.2,"T1/2 ([1]; nanoemulsion, IV, rats, 1.5 mg, mean ± SD): 5.3 ± 1.8 h; F0-inf (absolute oral bioavailability) ([1]; nanoemulsion, PO, rats, mean ± SD): 9.2 ± 2.6%"
